Assay results published in ChEMBL document CHEMBL1148101, “Structure/activity relationship of some natural monoterpenes as acaricides against Psoroptes cuniculi” (1995).

Legend:
Assay type in all cases: functional
[1] = test system: Psoroptes ovis; test: Acaricidal activity against Psoroptes cuniculi at 0.125% dilution in physiological saline after 48 hrs by direct contact assay
[2] = test system: Psoroptes ovis; test: Acaricidal activity against Psoroptes cuniculi at 1 uL after 24 hrs by inhalation assay
[3] = test system: Psoroptes ovis; test: Acaricidal activity against Psoroptes cuniculi at 6 uL after 24 hrs by inhalation assay
[4] = test system: Psoroptes ovis; test: Acaricidal activity against Psoroptes cuniculi at 1% dilution in physiological saline after 48 hrs by direct contact assay
[5] = test system: Psoroptes ovis; test: Acaricidal activity against Psoroptes cuniculi at 3 uL after 24 hrs by inhalation assay
[6] = test system: Psoroptes ovis; test: Acaricidal activity against Psoroptes cuniculi at 0.25% dilution in physiological saline after 48 hrs by direct contact assay
[7] = test system: Psoroptes ovis; test: Acaricidal activity against Psoroptes cuniculi at 18 uL after 24 hrs by inhalation assay
[8] = test system: Psoroptes ovis; test: Acaricidal activity against Psoroptes cuniculi at 36 uL after 24 hrs by inhalation assay

Structure (SMILES)	Activity [1] [%]	Activity [2] [%]	Activity [3] [%]	Activity [4] [%]	Activity [5] [%]	Activity [6] [%]	Activity [7] [%]	Activity [8] [%]
C=CCc1ccc(OC)cc1 [ESTRAGOLE]	0	0	5	100	6.7	63.3	–	–
CC(C)=CCC/C(C)=C\CO [NEROL]	100	36.7	100	100	83.3	98.3	–	–
C=CCc1ccc(O)c(OC)c1 [EUGENOL]	100	86.7	100	100	96.7	100	–	–
CC1CCC(C(C)C)C(O)C1 (stereo not drawn) [MENTHOL]	100	–	100	100	–	100	100	100
CC1=CCC(C(C)C)=CC1 [GAMMA-TERPINENE]	0	0	0	0	0	0	–	–
C=CC(C)(CCC=C(C)C)OC(C)=O (stereo not drawn) [LINALYL ACETATE]	5	0	20	40	13.3	35	–	–
CC1=CC[C@@H](C(C)(C)O)CC1 [ALPHA-TERPINEOL]	100	73.3	98.3	100	98.3	100	–	–
CC1=CCC(O)(C(C)C)CC1 (stereo not drawn) [TERPINEOL]	100	5	100	100	41.7	100	–	–
C=CC(=C)CCC=C(C)C [MYRCENE]	0	0	6.7	0	5.2	0	–	–
C=C(C)[C@H]1CC=C(C)CC1 [D-LIMONENE]	0	0	0	0	0	0	–	–
C=CC(C)(O)CCC=C(C)C (stereo not drawn) [LINALOOL]	97	36.7	100	100	75	100	–	–
Cc1ccc(C(C)C)c(O)c1 [THYMOL]	100	–	100	100	–	100	100	100
CC(C)=CCC/C(C)=C/CO [GERANIOL]	100	95	96.7	100	93.3	100	–	–
